Assay results published in patent publication US20040058983A1, “Plan-derived and synthetic phenolic compounds and plant extracts, effective in the treatment and prevention of chlamydial infections” (priority 2000, published 2004).
Read-outs that look alike come from different tables or passages of the source.

How the values were obtained:
C. trachomatis = test: Direct anti-chlamydial effect on C. trachomatis, cultivation in McCoy cells; format: cell-based; conditions: for inhibition at 0.5 µM / inhibition at 50 µM: Chlamydia trachomatis; for Effect on C. trachomatis (in words): pretreated host cells
Experimental: C. trachomatis, cultivation in McCoy cells. The test procedure otherwise the same as with C. pneumoniae.
(§1) As the host cell of C. pneumoniae in in vitro conditions HL cells are used. As the host cells of C. trachomatis in in vitro conditions McCoy cells often are used.
(§2) On the day preceding the infection the host cells are inoculated on a 24-well plate: the cells are harvested by trypsinisation, they are suspended in ca. 5 ml of the nutrition liquid and counted in a Burker's chamber. Each well are seeded using a concentration of 250000-400000 cells/well for cultivation. Before the addition of the cells to the well is if necessary round cover glass (diameter 13 mm) put for staining. Nutrition liquid is added so that the volume is 1 ml/well. On the following day the cells are infected with the desired bacterium.
(§3) Solution to be used in the infection and containing chlamydiae particles is mixed throughout. The old nutrition liquid is aspirated away. By the infection the inoculum which has been stored at −70° C. is diluted to an IFU concentration of ca. 10^3 so that the volume of the solution is at least 200 μl/well on a 24-well plate. The cells are infected by centrifuging at 1600 rpm (550×g)/1 hr. The nutrition medium is aspirated away and changed to a maintenance medium containing cyclohexamide and also containing the studied compound (DMSO concentration 0.2%), 1 ml/well. The cells are incubated in a 5% CO2 atmosphere at +35° C. The cells infected with C. pneumoniae are incubated for 3 days. After 2-3 days the maintenance medium is removed and the cells washed with 1×1 ml of PBS. To the wells 200 μl of SPG are added for further infection, harvested with a pipette tip and transferred into tubes. This is used for infecting new cells in the same way as above to test the inhibition of infectivity (chlamydiasidic effect).
(§4) The nutrition medium, which is above the cover glass left for staining, is aspirated away. The infected cells are fixed on the cover glass with methanol for 10 min. The cover glass is removed from the well and -transferred onto a suitable fluorescein-conjugated monoclonal antibody on Parafilm in a moist chamber with the cell-containing side down. The cover glass is incubated for 30 min at +37° C. and washed twice with PBS and once with water. Finally it is dried. The cover glass is put with the cell-containing side down on an object glass containing a fixative (e.g. Mounting medium). When viewed under the fluorescent microscope, cell culture specimens infacted with chlamydiae show a characteristic apple-green fluorescence of inclusions against a red counterstained background.

HL cells = test: Toxicity towards the host cells, Trypan blue staining, no infection; format: cell-based, human
Experimental: The determination was performed as in the previous tests but without any infection. The viability was determined with Trypan blue staining.

[1] = Antioxidant effect, IC50 against DPPH; format: biochemical; conditions: read-out: IC50 [moles L^−1] against DPPH′
Excerpt: (§5) In the following Table I some of the preferred plant-derived phenolic compounds according to the present invention, the effect of the compounds on the calcium influx to the cell, the antioxidant effect as well as the chemical structure of the compounds are presented.

[2] = tested on: C. pneumoniae K7 strain (clinical isolate); test: Direct anti-chlamydial effect (inhibition of formation of inclusions), HL host cells; format: cell-based; conditions: for inhibition at 0.5 µM / inhibition at 50 µM: Chlamydia pneumoniae, read-out: Inhibition % of the DMSO control (pre-treated)
C. pneumoniae [3] = test: Inhibition of the infectivity (chlamydiasidic effect), re-infection of new cells; format: cell-based; conditions: for inhibition at 0.5 µM / inhibition at 50 µM: Chlamydia pneumoniae
Experimental: Inhibition of the Infectivity/C. pneumoniae
as §3, §4

[4] = tested on: C. pneumoniae K7 strain (clinical isolate); test: Direct anti-chlamydial effect (inhibition of formation of inclusions), HL host cells; format: cell-based; conditions: for inhibition at 0.5 µM / inhibition at 50 µM: Chlamydia pneumoniae, read-out: Inhibition % of the DMSO control; for Inhibition of the growth of C. pneumoniae (in words): concentration of 0.5-50 μg
Excerpt: The Direct Anti-Chlamydial Effect of Plant-Derived Phenolic Compounds (As Inhibition of Formation of Inclusions)/C. pneumoniae K7 Strain (Clinical Isolate)
(§6) The cultivated HL cells are infected with C. pneumoniae EB's. The EB's which have invaded the cell are changed into the metabolically active reticulate body (RB) which are dividing by binary fission in the endosome vacuole or inclusion.
(§7) After a certain time (about 72 hr) the C. pneumoniae RB's are condensing back into EB's, after which the inclusions are broken, the host cells are broken and the EB's are liberated. In this method the intention is to verify the inclusions before the breaking up of the host cells.
as §1, §2, §3, §4

C. pneumoniae [5] = test: Direct anti-chlamydial effect of compounds and mixtures on C. pneumoniae (Example 5); format: cell-based; conditions: 50 μM; for inhibition at 50 µM: Chlamydia pneumoniae, read-out: Inhibition %
Experimental: Direct Anti-Chlamydial Effect of Plant-Derived Phenolic Compounds, Certain Synthetic Compounds and Mixtures on C. pneumoniae
The concentration used was 50 μM.
as §6, §7, §2, §3, §4

Ca^2+ intake in the cell = test: Effect of the compounds on the calcium influx (Ca2+ intake) to the cell; format: cell-based; conditions: compound 20 μg/ml; − = decrease, + = increase
Excerpt: as §5

[6] = 0.5 μM, McCoy cells pre-treated 1 day, read-out: Inhibition % of the DMSO control (pre-treated)
[7] = 0.5 μM, McCoy cells, read-out: Inhibition % of the DMSO control
[8] = 50 μM, McCoy cells pre-treated 1 day, read-out: Inhibition % of the DMSO control (pre-treated)
[9] = 50 μM, McCoy cells, read-out: Inhibition % of the DMSO control
[10] = 0.5 μM, host cells incubated 1 day with compound before infection
[11] = 50 μM, host cells incubated 1 day with compound before infection
[12] = 0.5 μM, host cells pre-treated 1 day, read-out: Inhibition % of the DMSO control (pre-treated)
[13] = 0.5 μM, read-out: Inhibition % of the DMSO control
[14] = 50 μM, host cells pre-treated 1 day, read-out: Inhibition % of the DMSO control (pre-treated)
[15] = 50 μM, read-out: Inhibition % of the DMSO control
[16] = 0.5 μM, formation of inclusions

## O=c1c(O)c(-c2ccc(O)c(O)c2)oc2cc(O)cc(O)c12 [Quercetin]
C. trachomatis; [6]
  inhibition at 0.5 µM: 20%
C. trachomatis; [7]
  inhibition at 0.5 µM: 0%
C. trachomatis; [8]
  inhibition at 50 µM: 100%
C. trachomatis; [9]
  inhibition at 50 µM: 0%
C. trachomatis
  Effect on C. trachomatis (in words): particularly effective
HL cells; 0.005 μM
  Toxicity test HL-C: 7.4%
  Toxicity test HL-C (pre-treated): 7.9%
HL cells; 0.05 μM
  Toxicity test HL-C: 11.7%
  Toxicity test HL-C (pre-treated): 7.2%
HL cells; 0.5 μM
  Toxicity test HL-C: 7.0%
  Toxicity test HL-C (pre-treated): 3.3%
HL cells; 5 μM
  Toxicity test HL-C: 9.2%
  Toxicity test HL-C (pre-treated): 8.1%
HL cells; 50 μM
  Toxicity test HL-C: 10.5%
  Toxicity test HL-C (pre-treated): 10.5%
[1]
  IC50: 10.7 µM
[2]; [10]
  inhibition at 0.5 µM: 77%
[2]; [11]
  inhibition at 50 µM: 90%
C. pneumoniae [3]; [12]
  inhibition at 0.5 µM: 0%
C. pneumoniae [3]; [13]
  inhibition at 0.5 µM: 58%
C. pneumoniae [3]; [14]
  inhibition at 50 µM: 0%
C. pneumoniae [3]; [15]
  inhibition at 50 µM: 76%
[4]; [16]
  inhibition at 0.5 µM: 68%
[4]; 50 μM, formation of inclusions
  inhibition at 50 µM: 90%
[4]
  Inhibition of the growth of C. pneumoniae (in words): inhibited the growth
C. pneumoniae [5]
  inhibition at 50 µM: 90%
Ca^2+ intake in the cell
  inhibition at 20 µg/mL: -54.1%

## COc1cc(O)c2c(=O)c(O)c(-c3ccc(O)c(O)c3)oc2c1 [Rhamnetin]
C. trachomatis; 0.5 μM, McCoy cells
  Inhibition % of the DMSO control: 0%
C. trachomatis; 0.5 μM, McCoy cells pre-treated 1 day
  Inhibition % of the DMSO control (pre-treated): 17%
C. trachomatis; 50 μM, McCoy cells
  Inhibition % of the DMSO control: 0%
C. trachomatis; 50 μM, McCoy cells pre-treated 1 day
  Inhibition % of the DMSO control (pre-treated): 100%
C. trachomatis
  Effect on C. trachomatis (in words): particularly effective
HL cells; 0.005 μM
  Toxicity test HL-C: 10.9%
  Toxicity test HL-C (pre-treated): 6.6%
HL cells; 0.05 μM
  Toxicity test HL-C: 9.5%
  Toxicity test HL-C (pre-treated): 7.6%
HL cells; 0.5 μM
  Toxicity test HL-C: 10.0%
  Toxicity test HL-C (pre-treated): 10.6%
HL cells; 5 μM
  Toxicity test HL-C: 9.6%
  Toxicity test HL-C (pre-treated): 8.0%
HL cells; 50 μM
  Toxicity test HL-C: 15.7%
  Toxicity test HL-C (pre-treated): 16.9%
[1]
  IC50: 12.1 µM
[2]; [10]
  Inhibition % of the DMSO control (pre-treated): 50%
[2]; [11]
  Inhibition % of the DMSO control (pre-treated): 59%
C. pneumoniae [3]; 0.5 μM
  Inhibition % of the DMSO control: 100%
C. pneumoniae [3]; 0.5 μM, host cells pre-treated 1 day
  Inhibition % of the DMSO control (pre-treated): 75%
C. pneumoniae [3]; 50 μM
  Inhibition % of the DMSO control: 100%
C. pneumoniae [3]; 50 μM, host cells pre-treated 1 day
  Inhibition % of the DMSO control (pre-treated): 67%
[4]; [16]
  Inhibition % of the DMSO control: 73%
[4]; 50 μM, formation of inclusions
  Inhibition % of the DMSO control: 99%
[4]
  Inhibition of the growth of C. pneumoniae (in words): inhibited the growth
C. pneumoniae [5]
  Inhibition %: 100%
Ca^2+ intake in the cell
  Effect on Ca^2+ intake [%]: +6.63%

## CCCCCCCCOC(=O)c1cc(O)c(O)c(O)c1 [Octyl gallate]
C. trachomatis; [6]
  inhibition at 0.5 µM: 0%
C. trachomatis; [7]
  inhibition at 0.5 µM: 0%
C. trachomatis; [8]
  inhibition at 50 µM: 88%
C. trachomatis; [9]
  inhibition at 50 µM: 14%
HL cells; 0.005 μM
  Toxicity test HL-C: 8.0%
  Toxicity test HL-C (pre-treated): 7.0%
HL cells; 0.05 μM
  Toxicity test HL-C: 7.4%
  Toxicity test HL-C (pre-treated): 7.1%
HL cells; 0.5 μM
  Toxicity test HL-C: 7.9%
  Toxicity test HL-C (pre-treated): 5.0%
HL cells; 5 μM
  Toxicity test HL-C: 8.8%
  Toxicity test HL-C (pre-treated): 8.5%
HL cells; 50 μM
  Toxicity test HL-C: 16.4%
  Toxicity test HL-C (pre-treated): 14.8%
[1]
  IC50: 17 µM
[2]
  inhibition at 0.5 µM: 62%
  inhibition at 50 µM: 100%
C. pneumoniae [3]; [12]
  inhibition at 0.5 µM: 42%
C. pneumoniae [3]; [13]
  inhibition at 0.5 µM: 59%
C. pneumoniae [3]; [14]
  inhibition at 50 µM: 100%
C. pneumoniae [3]; [15]
  inhibition at 50 µM: 100%
[4]
  inhibition at 0.5 µM: 82%
  inhibition at 50 µM: 100%
  Inhibition of the growth of C. pneumoniae (in words): inhibited the growth
C. pneumoniae [5]
  inhibition at 50 µM: 100%
Ca^2+ intake in the cell
  inhibition at 20 µg/mL: 92.2%
